In assay [1] the test system is dermatitis induced by picryl chloride (type IV allergic inflammation). The assay is described as follows: Inhibitory effect on dermatitis induced by picryl chloride, oral administration. Particulars: oral 10 mg/kg in 0.5% CMC-Na one hour before the causing; relative to comparative compound 1 oral 100 mg/kg. It counts as in vivo, ICR strain male mice. The protocol: The effect on the animal model in Evaluation Example 1 was verified by oral administration. ICR strain male mice were sensitized in the same manner as in Evaluation Example 1, and on the seventh days after the sensitization, 0.02 ml of a 1% (w/v) picryl chloride/acetone solution was applied on the ear of each mouse to cause an allergic reaction. Each test compound was suspended in a 0.5% CMC-Na solution and orally administered in a dose of 10 mg/kg one hour before the causing of the allergic reaction. As a comparative example, the above-mentioned comparative compound 1 disclosed in Japanese Patent No. 3093170 was orally administered in a dose of 100 mg/kg to make a comparison.

Assay [2] has the same test system. The assay is described as follows: Inhibitory effect on dermatitis induced by picryl chloride, test compound applied on the ear. It counts as in vivo, ICR strain male mice. As to conditions: 0.04 ml of 0.25% (w/v) test compound/acetone on the ear; ear thickness 24 hours after the causing; relative to 2.5% (w/v) comparative compound 1 (10 times the amount). On the procedure:
In order to verify the inflammation-inhibiting effect of the uracil derivative of the present invention, its effect on dermatitis induced by picryl chloride, a model of typical type IV allergic inflammation was evaluated by adopting the method of Asherson et al. (Immunology, 15, 405 (1968)). On the abdominal skin of each of ICR strain male mice was applied 0.1 ml of a 7% (w/v) picryl chloride/acetone solution to induce sensitization. On the seventh days after the sensitization, 0.02 ml of a 1% (w/v) picryl chloride/acetone solution was applied on the ear of each mouse to cause an allergic reaction. […] Twenty-four hours after the causing, the thickness of the ear was measured and the dermatitis-inhibiting effect of the test compound was evaluated by employing the difference between the thickness of the ear 24 hours after the causing and that before the causing as an indication. […]
From the difference of the ear thickness before and after the causing of the allergic reaction in the case of each group, the relative degree of efficacy of the test compound in the inhibition of ear enlargement was calculated according to the following equation by comparison with a group treated with the comparative compound in an amount of 10 times that of the test compound: [formula]

Assay [3] deals with itch-related behavior induced by substance P. The experiment in a line: Inhibitory effect on the itch-related behavior of mice induced by substance P. It counts as in vivo, BALB/c strain male mice. As to conditions: frequency counted for 60 minutes, vs 0.5% CMC-Na group. The protocol: It has been reported that in the lesion part of a patient with atopic dermatitis, there are observed an increase in nerve fiber containing substance P (SP), a nerve peptide (Tobin D et al., J Allergy Clin immunol, 90, 613-22(1992)) and an increase in reactivity with SP (Gianetti A et al. Br J Dermatol, 121, 681-8(1989)). On the other hand, it has been reported that when SP is administered to the cervicodorsal part of a mouse, itch-related behavior is induced (Kuraishi Y et al. Eur J Pharmacol, 275, 229-33(1995)) and is suppressed by a certain antiallergic agent (Inagaki N et al. Eur J Pharmacol, 400, 73-9(2000)). Therefore, in order to verify the itch-inhibiting effect of the uracil derivatives of the present invention, the itch-inhibiting effect was evaluated by employing the effect of the uracil derivatives on itch-related behavior induced by SP, as an indication. Each of BALB/c strain male mice was previously transferred to a cage for observation and allowed to acclimate to an observation environment, and then SP was subcutaneously administered (200 μg/mouse) to the cervicodorsal part of the mouse. After the administration, the mouse was returned to the cage for observation and the frequency of its itch-related behavior was measured for 60 minutes after the return. Each test drug was suspended in a 0.5% CMC-Na solution and orally administered in a dose of 10 mg/kg 30 minutes before the administration of SP. For evaluating the itch-inhibiting effect, the inhibition rate of the test drug was calculated as an indication as follows by comparison with a group treated with a 0.5% CMC-Na solution. As a comparative example, an antiallergic agent Oxatomide, which is considered as an agent having itch-inhibiting effect, was administered in a dose of 3 times that of the test drug (30 mg/kg). [formula]

The mark [4] stands for this setting: oral 10 mg/kg 30 minutes before SP (200 μg/mouse s.c.).

As for `Cc1c(O)c(C)c(C(=O)Nc2c(N)n(-c3cccc4c3CCCC4)c(=O)n(C)c2=O)c2c1CC(C)(C)O2` [Example 22, 6-amino-3-methyl-5-(6-hydroxy-2,2,5,7-tetramethyl-3-oxaindan-4-carboxamide)-1-(5,6,7,8-tetrahydro-1-naphthyl)uracil], in assay [1], the “Degree of efficacy (relative degree of efficacy in the inhibition of ear enlargement)” value worked out at 1.3.
Still for that read-out and setting: as for `CCCCn1c(=O)c(NC(=O)c2c(C)c(O)c(C)c3c2OC(C)(C)C3)c(N)n(-c2cccc3ccccc23)c1=O` [Example 14, 6-amino-3-butyl-5-(6-hydroxy-2,2,5,7-tetramethyl-3-oxaindan-4-carboxamide)-1-(1-naphthyl)uracil], the figure is 1.0.
On to `Cc1cccc(-n2c(N)c(NC(=O)COc3cc(C)c(N)c(C)c3C)c(=O)n(C)c2=O)c1C` [Example 29, 6-amino-5-[(4-amino-2,3,5-trimethyl)phenoxy]acetamide-3-methyl-1-(2,3-dimethylphenyl)uracil], for which the “Degree of efficacy (relative degree of efficacy in the inhibition of ear enlargement)” value in assay [1] is recorded as 1.4.
On the same count and under the same terms, as for `CCn1c(=O)c(NC(=O)c2c(C)c(O)c(C)c3c2OC(C)(C)C3)c(N)n(-c2cccc3c2CCC3)c1=O` [Example 20, 6-amino-3-ethyl-5-(6-hydroxy-2,2,5,7-tetramethyl-3-oxaindan-4-carboxamide)-1-(4-indanyl)uracil], the figure is 1.2; as for `CCn1c(=O)c(NC(=O)c2c(C)c(O)c(C)c3c2OC(C)(C)CC3)c(N)n(-c2cccnc2OC)c1=O` [Example 10, 6-amino-3-ethyl-5-(6-hydroxy-2,2,5,7-tetramethylchroman-8-carboxamide)-1-(2-methoxypyridin-3-yl)uracil], 1.6.
On to `Cc1cc(OCC(=O)Nc2c(N)n(-c3cccc4ccccc34)c(=O)n(C)c2=O)c(C)c(C)c1O` [Example 4, 6-amino-5-[(4-hydroxy-2,3,5-trimethyl)phenoxy]acetamide-3-methyl-1-(1-naphthyl)uracil], for which the “Degree of efficacy (relative degree of efficacy in the inhibition of ear enlargement)” value in assay [2] is on record as 0.9.
Consider `O=c1[nH]c2ccccc2n1CCCN1CCN(C(c2ccccc2)c2ccccc2)CC1` [Oxatomide, reference compound], for which the “Inhibition rate (%) of itch-related behavior” value (from here on “Inhibition rate (%)”) in assay [3] (oral 30 mg/kg 30 minutes before SP (200 μg/mouse s.c.)) was found to be 39%.
On to `Cc1cc(OCC(=O)Nc2c(N)n(-c3cccc4ccccc34)c(=O)n(C)c2=O)c(C)c(C)c1N` [Example 5, 6-amino-5-[(4-amino-2,3,5-trimethyl)phenoxy]acetamide-3-methyl-1-(1-naphthyl)uracil], for which the “Degree of efficacy (relative degree of efficacy in the inhibition of ear enlargement)” value in assay [2] came to 1.1. In addition, the “Inhibition rate (%)” value in assay [3] (setting [4]) is on record as 53%.
As to `Cc1c(O)c(C)c(C(=O)Nc2c(N)n(-c3cccc4ccccc34)c(=O)n(C)c2=O)c2c1CCC(C)(C)O2` [Example 2, 6-amino-5-(6-hydroxy-2,2,5,7-tetramethyl-chroman-8-carboxamide)-3-methyl-1-(1-naphthyl)uracil], the “Inhibition rate (%)” value in assay [3] (setting [4]) is 71%.
For `CNc1c(NC(=O)COc2cc(C)c(N)c(C)c2C)c(=O)n(C)c(=O)n1-c1cccc(C)c1C` [Example 30, 6-methylamino-5-[(4-amino-2,3,5-trimethyl)phenoxy]acetamide-3-methyl-1-(2,3-dimethylphenyl)uracil], the “Degree of efficacy (relative degree of efficacy in the inhibition of ear enlargement)” value in assay [1] is 1.6.

The values are drawn from patent publication US20060094737A1, “Novel uracil derivatives and medicinal use thereof” (Sumitomo Pharmaceuticals CO. Ltd., priority 2002, published 2006).
